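Tested at 5 concentrations; 48 h exposure; 96-well plates; endpoints linearly interpolated, else capped at highest concentration. TGI: total growth inhibition.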
What was measured:
Experiment in all cases: NCI anticancer screen, dose series, 48 h
NCI-H522 lung = system: NCI-H522 lung
SF-295 CNS = system: SF-295 CNS
786-0 renal = system: 786-0 renal
SK-MEL-2 melanoma = system: SK-MEL-2 melanoma
A549 NSCLC = system: A549 NSCLC
ACHN renal = system: ACHN renal
NCI-H226 lung = system: NCI-H226 lung
RXF-631 renal = system: RXF-631 renal
TK-10 renal = system: TK-10 renal
HL-60(TB) leukemia = system: HL-60(TB) leukemia
DMS 114 small cell lung = system: DMS 114 small cell lung
HCT-116 colon = system: HCT-116 colon
HOP-18 NSCLC = system: HOP-18 NSCLC
UACC-257 melanoma = system: UACC-257 melanoma
CAKI-1 renal = system: CAKI-1 renal
SF-268 CNS = system: SF-268 CNS
SR leukemia = system: SR leukemia
RXF 393 renal = system: RXF 393 renal
M19-MEL melanoma = system: M19-MEL melanoma
SK-MEL-28 melanoma = system: SK-MEL-28 melanoma
HOP-62 NSCLC = system: HOP-62 NSCLC
COLO 205 colon = system: COLO 205 colon
HOP-92 NSCLC = system: HOP-92 NSCLC
SNB-75 CNS = system: SNB-75 CNS
SK-MEL-5 melanoma = system: SK-MEL-5 melanoma
A498 renal = system: A498 renal
NCI-H23 lung = system: NCI-H23 lung
SF-539 CNS = system: SF-539 CNS
HT29 colon = system: HT29 colon
IGROV1 ovarian = system: IGROV1 ovarian
HCT-15 colon = system: HCT-15 colon
SK-OV-3 ovarian = system: SK-OV-3 ovarian
SNB-19 CNS = system: SNB-19 CNS
OVCAR-5 ovarian = system: OVCAR-5 ovarian
CCRF-CEM leukemia = system: CCRF-CEM leukemia
KM20L2 colon = system: KM20L2 colon
NCI-H460 lung = system: NCI-H460 lung
DMS 273 small cell lung = system: DMS 273 small cell lung
LXFL 529 NSCLC = system: LXFL 529 NSCLC
M14 melanoma = system: M14 melanoma
MALME-3M melanoma = system: MALME-3M melanoma
DLD-1 colon = system: DLD-1 colon
SNB-78 CNS = system: SNB-78 CNS
UO-31 renal = system: UO-31 renal
SW-620 colon = system: SW-620 colon
MOLT-4 leukemia = system: MOLT-4 leukemia
U251 CNS = system: U251 CNS
UACC-62 melanoma = system: UACC-62 melanoma
HCC-2998 colon = system: HCC-2998 colon
OVCAR-4 ovarian = system: OVCAR-4 ovarian
KM12 colon = system: KM12 colon
SN12C renal = system: SN12C renal
OVCAR-3 ovarian = system: OVCAR-3 ovarian
EKVX NSCLC = system: EKVX NSCLC
LOX IMVI melanoma = system: LOX IMVI melanoma
OVCAR-8 ovarian = system: OVCAR-8 ovarian
K-562 leukemia = system: K-562 leukemia
XF 498 CNS = system: XF 498 CNS
RPMI-8226 leukemia = system: RPMI-8226 leukemia
DU-145 prostate = system: DU-145 prostate

Measured: TGI

C=CCNC(=O)/C=C\C(=O)O
> 100 µM: NCI-H522 lung | SF-295 CNS | 786-0 renal | SK-MEL-2 melanoma | A549 NSCLC | ACHN renal | NCI-H226 lung | RXF-631 renal | TK-10 renal | HL-60(TB) leukemia | DMS 114 small cell lung | HCT-116 colon | HOP-18 NSCLC | UACC-257 melanoma | CAKI-1 renal | SF-268 CNS | SR leukemia | RXF 393 renal | M19-MEL melanoma | SK-MEL-28 melanoma | HOP-62 NSCLC | COLO 205 colon | HOP-92 NSCLC | SNB-75 CNS | SK-MEL-5 melanoma | A498 renal | NCI-H23 lung | SF-539 CNS | HT29 colon | IGROV1 ovarian | HCT-15 colon | SK-OV-3 ovarian | SNB-19 CNS | OVCAR-5 ovarian | CCRF-CEM leukemia | KM20L2 colon | NCI-H460 lung | DMS 273 small cell lung | LXFL 529 NSCLC | M14 melanoma | MALME-3M melanoma | DLD-1 colon | SNB-78 CNS | UO-31 renal | SW-620 colon | MOLT-4 leukemia | U251 CNS | UACC-62 melanoma | HCC-2998 colon | OVCAR-4 ovarian | KM12 colon | SN12C renal | OVCAR-3 ovarian | EKVX NSCLC | LOX IMVI melanoma | OVCAR-8 ovarian | K-562 leukemia

COc1cc2c[n+]3ccc4cc(OC)c(OC)cc4c3cc2cc1O
> 100 µM: NCI-H522 lung | SF-295 CNS | 786-0 renal | SK-MEL-2 melanoma | A549 NSCLC | ACHN renal | RXF-631 renal | TK-10 renal | HL-60(TB) leukemia | HCT-116 colon | XF 498 CNS | HOP-18 NSCLC | UACC-257 melanoma | SF-268 CNS | SR leukemia | RXF 393 renal | M19-MEL melanoma | SK-MEL-28 melanoma | RPMI-8226 leukemia | HOP-92 NSCLC | SNB-75 CNS | SK-MEL-5 melanoma | A498 renal | NCI-H23 lung | SF-539 CNS | HT29 colon | IGROV1 ovarian | HCT-15 colon | SK-OV-3 ovarian | SNB-19 CNS | OVCAR-5 ovarian | CCRF-CEM leukemia | KM20L2 colon | NCI-H460 lung | LXFL 529 NSCLC | M14 melanoma | MALME-3M melanoma | DLD-1 colon | UO-31 renal | SW-620 colon | MOLT-4 leukemia | U251 CNS | UACC-62 melanoma | HCC-2998 colon | KM12 colon | SN12C renal | EKVX NSCLC | LOX IMVI melanoma | OVCAR-8 ovarian | K-562 leukemia

CCOC(=O)C=C1CCC2(CC1)OCCO2
> 100 µM: NCI-H522 lung | SF-295 CNS | 786-0 renal | SK-MEL-2 melanoma | A549 NSCLC | ACHN renal | NCI-H226 lung | RXF-631 renal | TK-10 renal | HL-60(TB) leukemia | HCT-116 colon | XF 498 CNS | HOP-18 NSCLC | UACC-257 melanoma | CAKI-1 renal | SF-268 CNS | SR leukemia | RXF 393 renal | M19-MEL melanoma | SK-MEL-28 melanoma | RPMI-8226 leukemia | COLO 205 colon | HOP-92 NSCLC | SNB-75 CNS | SK-MEL-5 melanoma | DU-145 prostate | A498 renal | NCI-H23 lung | SF-539 CNS | HT29 colon | IGROV1 ovarian | HCT-15 colon | SK-OV-3 ovarian | SNB-19 CNS | OVCAR-5 ovarian | CCRF-CEM leukemia | KM20L2 colon | NCI-H460 lung | LXFL 529 NSCLC | M14 melanoma | MALME-3M melanoma | DLD-1 colon | UO-31 renal | SW-620 colon | MOLT-4 leukemia | U251 CNS | UACC-62 melanoma | HCC-2998 colon | OVCAR-4 ovarian | KM12 colon | SN12C renal | OVCAR-3 ovarian | LOX IMVI melanoma | OVCAR-8 ovarian | K-562 leukemia
